From patent publication US11549147B2, “Treatment of atopic dermatitis with tradipitant” (VANDA PHARMACEUTICALS INC., priority 2017, dated 2023)
Where “and” joins values, the source holds several entries; their conditions need not be identical. Equal values may be shown once.

Test system: chronic pruritus associated with atopic dermatitis
Experiment: Phase II randomized double-blind placebo-controlled study NCT02651714 (Example 3)
Format: in vivo, human
Parameters: key to average itch VAS, difference / worst itch VAS, difference: VAS in mm, 0-100 mm scale; key to Average Itch VAS / worst Itch VAS: change in VAS, mm on 0-100 mm scale; CGI-C / SKINDEX-16 / Worst Itch NRS Night / worst itch NRS night, difference / CGIC, difference: scale not given here
Protocol: A phase II, multicenter, randomized, double-blind, placebo-controlled clinical study (“Tradipitant in Treatment-resistant Pruritus Associated with Atopic Dermatitis,” clinicaltrials.gov Study ID NCT02651714) is conducted to determine the efficacy of tradipitant relative to placebo in reducing chronic pruritus as measured by the VAS.
Inclusion criteria for the study include chronic (≥6 weeks) itch related to AD that is refractory to treatment by patient history, average itch score by VAS of ≥70 mm (out of 100 mm), verbal response score (VRS) of ≥3 on at least one of the past three days prior to randomization, and a SCORAD of <80.
Patients are randomized to receive either 85 mg of tradipitant or placebo (1:1) bid. The design for the randomized, placebo-controlled, double-blind study is depicted in FIG. 3. Individuals with chronic pruritus associated with AD are administered 85 mg of tradipitant bid or placebo for eight weeks. Average itch severity and worst itch severity are assessed by VAS, and VRS is assessed every two weeks. In addition, treatment is assessed biweekly using both the objective and subjective SCORing Atopic Dermatitis (SCORAD) Index (Severity Scoring of Atopic Dermatitis: The SCORAD Index, Consensus Report of the European Task Force on Atopic Dermatitis, Dermatology 1993; 186:23-31) and the Eczema Area and Severity Index (EASI) (Hanifin et al., The eczema area and severity index (EASI): assessment of reliability in atopic dermatitis, Experimental Dermatology 10(1):11-18 (2001)). The Clinical Global Impressions of Change (CGI-C) scale, the Patient Global Impression of Change (PGIC) scale with respect to both itch and AD, the Patient Benefit Index (PBI), and SKINDEX-16 scales are also used for assessments. Twice daily questionnaires are completed to report worst and average itch by numeric rating scale (NRS).
The objective SCORAD assessment includes parameters including extension, intensity, excoriations, erythema, oozing or crusting, the presence of edema or papules, lichenification, and skin dryness. The subjective SCORAD assessment includes patient assessments of itch and insomnia.

[1] = ITT population, 85 mg bid, week 8
[2] = categorical, ITT, 85 mg bid, week 8
[3] = difference tradipitant vs placebo, 85 mg bid, week 8

O=C(c1ccccc1Cl)c1cccnc1-c1nnn(Cc2cc(C(F)(F)F)cc(C(F)(F)F)c2)c1-c1ccncc1 [Tradipitant]
time at which treatment effects in both itch and disease severity are evident (85 mg bid): 2 Week | clinical features of severity of atopic dermatitis, including excoriation, erythema, oozing and dryness (85 mg bid vs placebo): significant improvements | Average Itch VAS [1]: −41.5 | CGI-C [1]: 2.6 | PBI [1]: 1.7 and 1.72 | PGI-C AD [1]: 2.7 and 2.74 | PGI-C Itch [1]: 2.6 and 2.56 | SKINDEX-16 [1]: −34.8 | Worst Itch NRS Night [1]: −3.4 | Worst itch NRS day [1]: −3.3 | worst Itch VAS [1]: −44.2 | Worst itch VAS ≥30 (responders) (categorical, ≥30 points improvement from baseline, ITT, 85 mg bid, week 8): 56.60% | Worst itch VAS ≥40 (responders) (categorical, ≥40 points improvement from baseline, ITT, 85 mg bid, week 8): 52.6% | EASI ≥75% (patients with 75% or greater improvement) [2]: 21.1% | SCORAD ≥50% (patients with 50% or greater improvement) [2]: 44.0% | CGIC, difference [3]: −0.7 | EASI ≥75%, difference [3]: 10.0% | PBI, difference [3]: 0.48 | PGIC AD, difference [3]: −0.71 | PGIC itch, difference [3]: −0.6 | SCORAD total, difference [3]: −7.68 | SCORAD ≥50%, difference [3]: 23.2% | average itch VAS, difference [3]: −5.7 | objective SCORAD, difference [3]: −6.1 | subjective SCORAD, difference [3]: −1.43 | worst itch NRS day, difference [3]: −0.81 | worst itch NRS night, difference [3]: −1.05 | worst itch VAS (≥40), difference [3]: 17.9% | worst itch VAS, difference [3]: −13.6
